According to patent US20250313563A1, “GLYCOGEN SYNTHASE KINASE 3 INHIBITORS AND USES THEREOF” (The Broad Institute, Inc., priority 2022, published 2025):
Where two headings read alike, the source gives them in different places.

What was measured:
[1] = target: GSK3α (GST-full length GSK3α) (Homo sapiens (Human), UniProt P49840); test: GSK3α TR-FRET kinase assay; format: biochemical
Method in brief: (§1)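 Compound was preincubated 30 min with 1 nM GST-GSK3 enzyme. Reaction ran 100 min at ambient temperature in Tris pH 7.5/MgCl2 with 200 nM biotinylated pS645-glycogen synthase 631-650 peptide and ATP (4 μM GSK3α, 2 μM GSK3b, or 1 mM). The EDTA-stopped reaction was read by TR-FRET (Tb-anti-pSer641/streptavidin-d2), and IC50s were fitted.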

[2] = target: GSK3b (GST-full length GSK3b) (Homo sapiens (Human), UniProt P49841); test: GSK3b TR-FRET kinase assay; format: biochemical
Method in brief: as §1

[3] = 1 nM GSK3α, 4 μM ATP, 30 minute preincubation, read-out: GSK3-A TR-FRET BIOCHEMICAL (TR-FRET), IC50
[4] = read-out: GSK3-A (TR-FRET 1 mM ATP), GMean, IC50, 1 mM ATP, geometric mean
[5] = 1 nM GSK3b, 2 μM ATP, 30 minute preincubation, read-out: GSK3-B TR-FRET BIOCHEMICAL (TR-FRET), IC50
[6] = read-out: GSK3-B (TR-FRET 1 mM ATP), GMean, IC50, 1 mM ATP, geometric mean
[7] = 1 nM GSK3α, 4 μM ATP, 30 minute preincubation, Table 16, read-out: GSK3-A TR-FRET BIOCHEMICAL (TR-FRET)
[8] = 1 nM GSK3b, 2 μM ATP, 30 minute preincubation, Table 16, read-out: GSK3-B TR-FRET BIOCHEMICAL (TR-FRET)

GSK3α (GST-full length GSK3α), sequence (P49840 whole entry): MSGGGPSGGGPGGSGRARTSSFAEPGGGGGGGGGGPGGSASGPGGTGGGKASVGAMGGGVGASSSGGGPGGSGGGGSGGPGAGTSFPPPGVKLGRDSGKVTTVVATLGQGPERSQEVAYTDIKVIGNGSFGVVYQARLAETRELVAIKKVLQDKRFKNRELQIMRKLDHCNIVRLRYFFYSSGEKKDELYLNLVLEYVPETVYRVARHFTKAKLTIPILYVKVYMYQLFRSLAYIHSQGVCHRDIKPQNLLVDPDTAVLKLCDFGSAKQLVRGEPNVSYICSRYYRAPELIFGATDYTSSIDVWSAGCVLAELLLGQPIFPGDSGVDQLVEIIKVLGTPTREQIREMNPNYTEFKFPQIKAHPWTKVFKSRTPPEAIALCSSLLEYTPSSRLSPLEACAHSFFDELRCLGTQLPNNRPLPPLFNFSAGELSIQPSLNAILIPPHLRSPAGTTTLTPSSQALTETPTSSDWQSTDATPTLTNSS
GSK3b (GST-full length GSK3b), sequence (P49841 whole entry): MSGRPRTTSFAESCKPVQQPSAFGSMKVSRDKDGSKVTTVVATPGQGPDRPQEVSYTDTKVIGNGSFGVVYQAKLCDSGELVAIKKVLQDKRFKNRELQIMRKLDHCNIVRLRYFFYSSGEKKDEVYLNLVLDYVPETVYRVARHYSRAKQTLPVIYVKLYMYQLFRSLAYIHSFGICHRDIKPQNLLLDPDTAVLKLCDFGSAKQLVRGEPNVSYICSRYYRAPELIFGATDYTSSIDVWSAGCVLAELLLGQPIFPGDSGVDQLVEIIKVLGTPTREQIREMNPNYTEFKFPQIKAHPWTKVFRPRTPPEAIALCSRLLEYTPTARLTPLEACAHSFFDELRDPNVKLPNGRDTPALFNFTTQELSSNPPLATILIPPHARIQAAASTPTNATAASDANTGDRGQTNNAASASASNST

IC50 [1, 4] [nM] | IC50 [2, 6] [nM] | IC50 [1, 7] [nM] | IC50 [2, 8] [nM] | Compound | also measured
100 to 1000 | 1000 to 5000 | – | – | CC[C@]1(c2cccc(-c3cn(C)nc3C)c2)C2=C(CC(C)(C)NC2=O)Nc2n[nH]cc21 [Compound 945470] | IC50 [1, 3]: ≤ 100 nM; IC50 [2, 5]: ≤ 100 nM
> 5000 | > 5000 | 1000 to 5000 | 1000 to 5000 | CC[C@]1(c2cccc(-c3ccncc3OC)c2)C2=C(CC(C)(C)CC2=O)Nc2n[nH]cc21 [Compound 945471] | –
– | – | ≤ 100 | 100 to 1000 | CC[C@]1(c2cccc(N(C)c3ccc(C(F)(F)F)nc3)c2)C2=C(CC(C)(C)CC2=O)Nc2n[nH]cc21 [Compound 945474] | –
– | – | – | – | CC1(C)CC(=O)C2=C(C1)Nc1n[nH]cc1C21CN(c2ccccn2)C1 [Compound 945477] | IC50 ([1]; 1 nM GSK3α, 4 μM ATP, 30 minute preincubation, Table 16, read-out: GSK3-A TR-FRET BIOCHEMICAL (TR-FRET), IC50): 1000 to 5000 nM; IC50 ([2]; 1 nM GSK3b, 2 μM ATP, 30 minute preincubation, Table 16, read-out: GSK3-B TR-FRET BIOCHEMICAL (TR-FRET), IC50): 1000 to 5000 nM
– | – | 100 to 1000 | 100 to 1000 | CC1(C)CC(=O)C2=C(C1)Nc1n[nH]cc1C21CN(c2ccc(C(F)(F)F)cc2)C1 [Compound 945478] | –
– | – | – | – | CC[C@@]1(c2cccc(-c3cn(C)nc3C)c2)C2=C(CC(C)(C)NC2=O)Nc2n[nH]cc21 [Compound 945480] | IC50 [1, 3]: 1000 to 5000 nM; IC50 [2, 5]: > 5000 nM
≤ 100 | 100 to 1000 | ≤ 100 | ≤ 100 | CCC1(c2cccc(-c3ccncc3OC)c2)C2=C(CC(C)(C)CC2=O)Nc2n[nH]cc21 (stereo not shown) [Compound 945481] | –
– | – | 100 to 1000 | 100 to 1000 | CC1(C)CC(=O)C2=C(C1)Nc1n[nH]cc1[C@]21CCCN(S(=O)(=O)Cc2ccccc2)CC1 [Compound 945483] | –
– | – | 1000 to 5000 | > 5000 | CC[C@@]1(c2cccc(-c3ccnc(C)c3)c2)C2=C(CC(C)(C)[C@H](F)C2=O)Nc2n[nH]cc21 [Compound 945486] | –
≤ 100 | 100 to 1000 | ≤ 100 | ≤ 100 | CCC1(c2cccc(-c3ccncc3C)c2)C2=C(CC(C)(C)CC2=O)Nc2n[nH]c(C(F)(F)F)c21 (stereo not shown) [Compound 945527] | –
≤ 100 | 100 to 1000 | ≤ 100 | ≤ 100 | CCC1(c2cccc(-c3ccncc3F)c2)C2=C(CC(C)(C)CC2=O)Nc2n[nH]c(C(F)(F)F)c21 (stereo not shown) [Compound 945528] | –
≤ 100 | 100 to 1000 | ≤ 100 | ≤ 100 | CCC1(c2cccc(-c3ccnn3C)c2)C2=C(CC(C)(C)CC2=O)Nc2n[nH]c(C(F)(F)F)c21 (stereo not shown) [Compound 945531] | –
≤ 100 | 100 to 1000 | ≤ 100 | ≤ 100 | CCC1(c2cccc(-c3cc(C)nn3C)c2)C2=C(CC(C)(C)CC2=O)Nc2n[nH]c(C(F)(F)F)c21 (stereo not shown) [Compound 945532] | –
100 to 1000 | 1000 to 5000 | ≤ 100 | ≤ 100 | CCC1(c2cccc(-c3cnn4c3CCCC4)c2)C2=C(CC(C)(C)CC2=O)Nc2n[nH]cc21 (stereo not shown) [Compound 945543] | –
– | – | 100 to 1000 | > 5000 | CCC1(c2cccc(-c3cnn4c3CCCC4)c2)C2=C(CC(C)(C)CC2=O)Nc2n[nH]cc21 (stereo not shown) [Compound 945544] | –
– | – | 1000 to 5000 | > 5000 | CC[C@@]1(c2cccc(-c3cn(C)nc3C)c2)C2=C(CC(C)(C)CC2=O)Nc2n[nH]cc21 [Compound 945545] | –
≤ 100 | 100 to 1000 | ≤ 100 | ≤ 100 | CC[C@]1(c2cccc(-c3cn(C)nc3C)c2)C2=C(CC(C)(C)CC2=O)Nc2n[nH]cc21 [Compound 945546] | –
– | – | 1000 to 5000 | > 5000 | CC1(C)CC(=O)C2=C(C1)Nc1n[nH]cc1[C@@]21CCCc2c(-c3ccncc3)cccc21 [Compound 945547] | –
– | – | ≤ 100 | ≤ 100 | CC1(C)CC(=O)C2=C(C1)Nc1n[nH]cc1[C@]21CCCc2c(-c3ccncc3)cccc21 [Compound 945548] | –
– | – | ≤ 100 | ≤ 100 | Cc1cc(-c2cccc3c2CCC[C@]32C3=C(CC(C)(C)CC3=O)Nc3n[nH]cc32)ccn1 [Compound 945549] | –
– | – | 100 to 1000 | > 5000 | Cc1cc(-c2cccc3c2CCC[C@@]32C3=C(CC(C)(C)CC3=O)Nc3n[nH]cc32)ccn1 [Compound 945550] | –
– | – | ≤ 100 | ≤ 100 | Cn1nccc1-c1cccc2c1CCC[C@]21C2=C(CC(C)(C)CC2=O)Nc2n[nH]cc21 [Compound 945551] | –
– | – | 100 to 1000 | > 5000 | Cn1nccc1-c1cccc2c1CCC[C@@]21C2=C(CC(C)(C)CC2=O)Nc2n[nH]cc21 [Compound 945552] | –
– | – | – | – | CCC1(c2cccc(-c3c(C)nn(C)c3C)c2)C2=C(CC(C)(C)NC2=O)Nc2n[nH]c(C)c21 (stereo not shown) [Compound 945598] | IC50 [1, 3]: ≤ 100 nM; IC50 [2, 5]: ≤ 100 nM
– | – | 100 to 1000 | 1000 to 5000 | CCc1cc(N(C)c2cccc(C3(CC)C4=C(CC(C)(C)CC4=O)Nc4n[nH]cc43)c2)ccn1 (stereo not shown) [Compound 945600] | –
– | – | 100 to 1000 | 100 to 1000 | CCC1(c2cccc(CS(C)(=O)=O)c2)C2=C(CC(C)(C)CC2=O)Nc2n[nH]cc21 (stereo not shown) [Compound 945601] | –
